biological target: SHP2 (Homo sapiens (Human), UniProt Q06124); test: SHP2 allosteric inhibition assay (DiFMUP substrate, bisphos-IRS1 peptide activation); format: biochemical; conditions: 0.33 nM SHP2, 0.5 μM bisphos-IRS1 peptide, 100 uM DiFMUP, room temperature
Protocol: At the basal state, SHP2 is auto-inhibited and access of substrates to the catalytic site is blocked by the […] interactions between the SH2 domains and the PTP domain. When bis-tyrosyl-phosphorylated peptides bind to SH2 domain of SHP2, the PTP domain becomes available for substrate recognition and reaction catalysis and SHP2 is allosterically activated. SHP2 catalytic activity can be measured using a fluorogenic artificial substrate DiFMUP.
The phosphatase reactions were carried out at room temperature in 384-well black polystyrene plates (Greiner Bio-One, Cat #784076) using assay buffers containing 60 mM HEPES, pH 7.2, 75 mM NaCl, 75 mM KCl, 1 mM EDTA, 0.05% P-20, and 5 mM DTT.
0.33 nM of SHP2 was co-incubated with of 0.5 μM of bisphos-IRS 1 peptide (sequence: H2N-LN(pY)IDLDLV(dPEG8)LST(pY)ASINFQK-amide) and various concentrations of compounds for 30-60 min at room temperature. Then the reaction was initiated by addition of the surrogate substrate DiFMUP (Invitrogen, Cat #D6567, 100 uM final).
The real-time conversion of DiFMUP to DiFMU (6,8-difluoro-7-hydroxyl-4-methyl-coumarin) was measured every 5 min for 30 min using a microplate reader (CLARIOstar, BMG Labtech) with excitation and emission wavelengths of 340 nm and 450 nm, respectively. Initial reaction rates were determined by linear fitting of the data and the inhibitor dose response curves were analyzed using normalized IC50 regression curve fitting with control-based normalization.

IC50 [nM] | Compound | Shp2 IC50(nM)
 | C[C@@H]1OCC2(CCN(c3ncc(Sc4ccnc5c4OC[C@@H]4C[C@](C)(O)CN54)nc3CO)CC2)[C@@H]1N (single isomer, unassigned) [Compound 18] | one of 21 and 22 is 13 and the other is 8
 | C[C@@H]1OCC2(CCN(c3ncc(Sc4ccnc5c4OC[C@@H]4C[C@@](C)(O)CN54)nc3CO)CC2)[C@@H]1N (single isomer, unassigned) [Compound 19] | one of 21 and 22 is 13 and the other is 8
3 | C[C@@H]1OCC2(CCN(c3ncc(Sc4ccnc5c4OC[C@@H]4CCCN54)nc3CO)CC2)[C@@H]1N [Compound 1, (3-((3S,4S)-4-amino-3-methyl-2-oxa-8-azaspiro[4.5]decan-8-yl)-6-(((S)-6a,7,8,9-tetrahydro-6H-pyrido[3,2-b]pyrrolo[1,2-d][1,4]oxazin-4-yl)thio)pyrazin-2-yl)methanol] | 
4 | C[C@@H]1OCC2(CCN(c3ncc(Sc4ccnc5c4OC[C@H]4CCCN54)nc3CO)CC2)[C@@H]1N [Compound 2, (3-((3S,4S)-4-amino-3-methyl-2-oxa-8-azaspiro[4.5]decan-8-yl)-6-(((R)-6a,7,8,9-tetrahydro-6H-pyrido[3,2-b]pyrrolo[1,2-d][1,4]oxazin-4-yl)thio)pyrazin-2-yl)methanol] | 
13 | C[C@@H]1OCC2(CCN(c3ncc(Sc4ccnc5c4OC[C@@H]4C[C@H](F)CN54)nc3CO)CC2)[C@@H]1N [Compound 3, (3-((3S,4S)-4-amino-3-methyl-2-oxa-8-azaspiro[4.5]decan-8-yl)-6-(((6aS,8S)-8-fluoro-6a,7,8,9-tetrahydro-6H-pyrido[3,2-b]pyrrolo[1,2-d][1,4]oxazin-4-yl)thio)pyrazin-2-yl)methanol] | 
5 | C[C@@H]1OCC2(CCN(c3ncc(Sc4ccnc5c4OC[C@@H]4C[C@@H](F)CN54)nc3CO)CC2)[C@@H]1N [Compound 4, (3-((3S,4S)-4-amino-3-methyl-2-oxa-8-azaspiro[4.5]decan-8-yl)-6-(((6aS,8R)-8-fluoro-6a,7,8,9-tetrahydro-6H-pyrido[3,2-b]pyrrolo[1,2-d][1,4]oxazin-4-yl)thio)pyrazin-2-yl)methanol] | 
8 | CO[C@H]1C[C@H]2COc3c(Sc4cnc(N5CCC6(CC5)CO[C@@H](C)[C@H]6N)c(CO)n4)ccnc3N2C1 [Compound 5, (3-((3S,4S)-4-amino-3-methyl-2-oxa-8-azaspiro[4.5]decan-8-yl)-6-(((6aS,8S)-8-methoxy-6a,7,8,9-tetrahydro-6H-pyrido[3,2-b]pyrrolo[1,2-d][1,4]oxazin-4-yl)thio)pyrazin-2-yl)methanol] | 
6 | CO[C@@H]1C[C@H]2COc3c(Sc4cnc(N5CCC6(CC5)CO[C@@H](C)[C@H]6N)c(CO)n4)ccnc3N2C1 [Compound 6, (3-((3S,4S)-4-amino-3-methyl-2-oxa-8-azaspiro[4.5]decan-8-yl)-6-(((6aS,8R)-8-methoxy-6a,7,8,9-tetrahydro-6H-pyrido[3,2-b]pyrrolo[1,2-d][1,4]oxazin-4-yl)thio)pyrazin-2-yl)methanol] | 
6 | C[C@@H]1OCC2(CCN(c3ncc(Sc4ccnc5c4OC[C@@H]4C[C@H](O)CN54)nc3CO)CC2)[C@@H]1N [Compound 7, (6aS,8S)-4-((5-((3S,4S)-4-amino-3-methyl-2-oxa-8-azaspiro[4.5]decan-8-yl)-6-(hydroxymethyl)pyrazin-2-yl)thio)-6a,7,8,9-tetrahydro-6H-pyrido[3,2-b]pyrrolo[1,2-d][1,4]oxazin-8-ol] | 
8 | C[C@@H]1OCC2(CCN(c3ncc(Sc4ccnc5c4OC[C@@H]4C[C@@H](O)CN54)nc3CO)CC2)[C@@H]1N [Compound 8, (6aS,8R)-4-((5-((3 S,4S)-4-amino-3-methyl-2-oxa-8-azaspiro[4.5]decan-8-yl)-6-(hydroxymethyl)pyrazin-2-yl)thio)-6a,7,8,9-tetrahydro-6H-pyrido[3,2-b]pyrrolo[1,2-d][1,4]oxazin-8-ol] | 
8 | CO[C@@H]1C[C@@H]2COc3c(Sc4cnc(N5CCC6(CC5)CO[C@@H](C)[C@H]6N)c(CO)n4)ccnc3N2C1 [Compound 9, (3-((3S,4S)-4-amino-3-methyl-2-oxa-8-azaspiro[4.5]decan-8-yl)-6-(((6aR,8R)-8-methoxy-6a,7,8,9-tetrahydro-6H-pyrido[3,2-b]pyrrolo[1,2-d][1,4]oxazin-4-yl)thio)pyrazin-2-yl)methanol] | 
10 | CO[C@H]1C[C@@H]2COc3c(Sc4cnc(N5CCC6(CC5)CO[C@@H](C)[C@H]6N)c(CO)n4)ccnc3N2C1 [Compound 10, (3-((3S,4S)-4-amino-3-methyl-2-oxa-8-azaspiro[4.5]decan-8-yl)-6-(((6aR,8S)-8-methoxy-6a,7,8,9-tetrahydro-6H-pyrido[3,2-b]pyrrolo[1,2-d][1,4]oxazin-4-yl)thio)pyrazin-2-yl)methanol] | 
14 | C[C@@H]1OCC2(CCN(c3ncc(Sc4ccnc5c4OC[C@@H]4C[C@H](O[C@H]6CCOC6)CN54)nc3CO)CC2)[C@@H]1N [Compound 11, (3-((3S,4S)-4-amino-3-methyl-2-oxa-8-azaspiro[4.5]decan-8-yl)-6-(((6aS,8S)-8-(((S)-tetrahydrofuran-3-yl)oxy)-6a,7,8,9-tetrahydro-6H-pyrido[3,2-b]pyrrolo[1,2-d][1,4]oxazin-4-yl)thio)pyrazin-2-yl)methanol] | 
12 | C[C@@H]1OCC2(CCN(c3ncc(Sc4ccnc5c4OC[C@@H]4C[C@H](O[C@@H]6CCOC6)CN54)nc3CO)CC2)[C@@H]1N [Compound 12, (3-((3S,4S)-4-amino-3-methyl-2-oxa-8-azaspiro[4.5]decan-8-yl)-6-(((6aS,8S)-8-(((R)-tetrahydrofuran-3-yl)oxy)-6a,7,8,9-tetrahydro-6H-pyrido[3,2-b]pyrrolo[1,2-d][1,4]oxazin-4-yl)thio)pyrazin-2-yl)methanol] | 
8 | C[C@@H]1OCC2(CCN(c3ncc(Sc4ccnc5c4OC[C@@H]4C[C@H](OC6COC6)CN54)nc3CO)CC2)[C@@H]1N [Compound 13, (3-((3S,4S)-4-amino-3-methyl-2-oxa-8-azaspiro[4.5]decan-8-yl)-6-(((6aS,8S)-8-(oxetan-3-yloxy)-6a,7,8,9-tetrahydro-6H-pyrido[3,2-b]pyrrolo[1,2-d][1,4]oxazin-4-yl)thio)pyrazin-2-yl)methanol] | 
5 | COCO[C@H]1C[C@H]2COc3c(Sc4cnc(N5CCC6(CC5)CO[C@@H](C)[C@H]6N)c(CO)n4)ccnc3N2C1 [Compound 14, (3-((3S,4S)-4-amino-3-methyl-2-oxa-8-azaspiro[4.5]decan-8-yl)-6-(((6aS,8S)-8-(methoxymethoxy)-6a,7,8,9-tetrahydro-6H-pyrido[3,2-b]pyrrolo[1,2-d][1,4]oxazin-4-yl)thio)pyrazin-2-yl)methanol] | 
10 | COCCO[C@H]1C[C@H]2COc3c(Sc4cnc(N5CCC6(CC5)CO[C@@H](C)[C@H]6N)c(CO)n4)ccnc3N2C1 [Compound 15, (3-((3S,4S)-4-amino-3-methyl-2-oxa-8-azaspiro[4.5]decan-8-yl)-6-(((6aS,8S)-8-(2-methoxyethoxy)-6a,7,8,9-tetrahydro-6H-pyrido[3,2-b]pyrrolo[1,2-d][1,4]oxazin-4-yl)thio)pyrazin-2-yl)methanol] | 
3 | C[C@@H]1OCC2(CCN(c3ncc(Sc4ccnc5c4OC[C@@H]4C[C@H](OCC6CC6)CN54)nc3CO)CC2)[C@@H]1N [Compound 16, (3-((3S,4S)-4-amino-3-methyl-2-oxa-8-azaspiro[4.5]decan-8-yl)-6-(((6aS,8S)-8-(cyclopropylmethoxy)-6a,7,8,9-tetrahydro-6H-pyrido[3,2-b]pyrrolo[1,2-d][1,4]oxazin-4-yl)thio)pyrazin-2-yl)methanol] | 
2 | C[C@@H]1OCC2(CCN(c3ncc(Sc4ccnc5c4OC[C@@H]4CC6(CC6)CN54)nc3CO)CC2)[C@@H]1N [Compound 17, (3-((3S,4S)-4-amino-3-methyl-2-oxa-8-azaspiro[4.5]decan-8-yl)-6-(((S)-6a′,7′-dihydro-6′H,9′H-spiro[cyclopropane-1,8′-pyrido[3,2-b]pyrrolo[1,2-d][1,4]oxazin]-4′-yl)thio)pyrazin-2-yl)methanol] | 
11 | C[C@@H]1OCC2(CCN(c3ncc(Sc4ccnc5c4OC[C@@H]4C[C@H](C#N)CN54)nc3CO)CC2)[C@@H]1N [Compound 20, (6aS,8S)-4-((5-((3S,4S)-4-amino-3-methyl-2-oxa-8-azaspiro[4.5]decan-8-yl)-6-(hydroxymethyl)pyrazin-2-yl)thio)-6a,7,8,9-tetrahydro-6H-pyrido[3,2-b]pyrrolo[1,2-d][1,4]oxazine-8-carbonitrile] | 
13 | C[C@@H]1OCC2(CCN(c3ncc(Sc4ccnc5c4OC[C@@H]4C[C@H](S(C)(=O)=O)CN54)nc3CO)CC2)[C@@H]1N [Compound 21, (3-((3S,4S)-4-amino-3-methyl-2-oxa-8-azaspiro[4.5]decan-8-yl)-6-(((6aS,8S)-8-(methylsulfonyl)-6a,7,8,9-tetrahydro-6H-pyrido[3,2-b]pyrrolo[1,2-d][1,4]oxazin-4-yl)thio)pyrazin-2-yl)methanol] | 
